“And” between values parts separate entries of the source, which are not always exact repeats. Equal entries are not always repeated. Where two headings read alike, the source gives them in different places.
Assays:
[1] = tested on: spinal serotonergic pathways; assay: Spinal serotonin content after lesion of descending serotonergic pathways; format: in vivo; conditions: 5,7-DHT 100 µg/rat intrathecal, 7 days; control 529±34
rats [2] = assay: Paw pressure test, rat
Description: The behavioural tests were performed in a quiet room and evaluated by a single investigator in a blinded manner. Treatments and/or genotypes were randomized in blocks and the number of animals in each block corresponded to the number of treatments and/or genotypes compared. […] Each animal was exposed to only one treatment.
The rats were submitted to the paw pressure test, using an Ugo Basile analgesy meter with a probe tip diameter of 1 mm (Bioseb, France). Nociceptive thresholds, expressed in grams (g), were measured by applying an increasing pressure to the right hind paw until a squeak (vocalization thresholds) was obtained (cut-off 750 g). Two consecutive stable vocalisation threshold values were first obtained (baseline).
Intrathecal injections were performed on anaesthetised rats held in one hand by the pelvic girdle. A 25 gauge 1 inch needle connected to a 25 µl Hamilton syringe was then inserted into the subarachnoidal space between lumbar vertebrae L5 and L6 until a tail flick was elicited. The syringe was held in position for few seconds after the injection of a volume of 10 µl [49]. All injections were performed under isoflurane anaesthesia (4% induction, 2% maintenance).

rats [3] = assay: Formalin test, rat; format: in vivo
Description: (§1) The animals received an intraplantar injection of a 2.5% formalin solution (50 µl rat, 25 µl mouse) into a hind paw. The time spent biting and licking of the injected paw was monitored during the two typical phases of the nociceptive response (phase I: 0–5 min; phase II: 20–40 min in rats or 15–40 min in mice).

TRPV1 = biological target: T1, TRPV1 (Rattus norvegicus, UniProt O35433); assay: TRPV1 activation assessed as nerve-mediated vasorelaxation in rat isolated mesenteric arteries; format: cell-based
T1 construct: rat mesenteric arterial segments precontracted with phenylephrine; from tissue; host or cells: rat isolated mesenteric arterial segments (Sprague-Dawley rats)
Description: TRPV1 activation was assessed indirectly on rat isolated mesenteric arteries, using nerve-mediated vasorelaxation as readout. Briefly, arterial segments (2 mm long) were suspended between two stainless steel wires in temperature-controlled tissue baths (37°C), containing aerated (95% O2 and 5% CO2) physiological salt solution (composition in mM: NaCl 119, KCl 4.6, CaCl2 1.5, MgCl2 1.2, NaHCO3 15, NaH2PO4 1.2 and D-glucose 6; pH 7.4), under a passive load of 2 mN. One of the wires was connected to a force-displacement transducer model FT03 C (Grass Instruments; Rhode Island, USA) for isometric tension recording. Vasorelaxation was studied in arterial segments submaximally contracted with phenylephrine. Increasing concentrations of AM404, arvanil, olvanil and HPODA in the absence and presence of capsazepine (3 µM) were then added cumulatively to determine concentration-response relationships. All experiments were performed in the presence of indomethacin (10 µM) and N^ω-nitro-L-arginine (300 µM) to reduce cyclooxygenase and nitric oxide synthase activity, respectively.
Data are presented as the mean ± SEM, and n indicates the number of animal tested in each group. pEC50 of the lipid metabolites indicates the negative log concentration that elicited half-maximal vasorelaxation. Mann-Whitney U test or Student’s t-test was used when two groups were compared. When multiple groups were compared, Kruskal-Wallis one-way ANOVA followed by Dunn’s multiple comparisons test was used. Data from the paw pressure test were analyzed by repeated measures two-way ANOVA followed by Sidak’s or Dunnett’s multiple comparisons test. The level of statistical significance was set at p<0.05. GraphPad Prism 6.0 software (California, USA) was used in all calculations and statistical analyses.

[4] = Contents of amines and lipid metabolites in blood and brain after i.p. injection in mice (LC-MS/MS); format: in vivo, mouse
Description: Twenty min after drug administration, the animals were anesthetized by CO2 (rats) or isoflurane (mice) inhalation and decapitated. The brain was removed from the skull and blood was collected in test tubes, containing 60 µl buffered citrate, and the tissues snap frozen in liquid nitrogen before storage at −70°C.
(§2) The whole brain was homogenized in ice-cold 10 mM Tris buffer (ml/g tissue) at pH 7.6. The buffer solution contained 1 mM EDTA, 0.3 mM ascorbic acid and 10 µM methylarachidonylfluorophosphonate (MAFP) to prevent degradation of AM404, arvanil, olvanil, anandamide and 2-arachidonoylglycerol. Aliquots (200 µl) of blood and homogenates were precipitated with 1 ml ice-cold acetone, containing AM404-D4 (5 nM) or anandamide-D8 (100 nM) as internal standard. After centrifugation at 25,200 g for 30 min at 4°C, the supernatants were collected in polypropylene tubes and vacuum evaporated. The protein content of the pellet was determined with Coomassie protein assay (Pierce; Illinois, USA), using bovine serum albumin as standard. […] Samples were analyzed on a Waters Aquity UPLC system coupled to a Sciex 5500 tandem mass spectrometer (LC-MS/MS; AB Sciex; Massachusetts, USA) or a Perkin Elmer 200 HPLC system coupled to an API 3000 tandem mass spectrometer (LC-MS-MS; Applied Biosystems/MDS-SCIEX).
Quantification of AM404, HPODA, arvanil and olvanil. Samples were analyzed on a Waters Aquity UPLC system coupled to a Sciex 5500 tandem mass spectrometer. Sample aliquots of 5 µl were injected into an Acquity UPLC BEH C18 column (100 × 2 mm, 1.7 µm; Waters) held at 50°C. All mobile phases were water-acetonitrile gradients, containing 0.1% formic acid and using a flow rate of 400 µl/min. The acetonitrile content was initially 30%, then increased linearly to 100% over 7 min and kept at this level for 4 min, followed by an equilibration period at 30% for 2 min. The electrospray interface was operating in the positive ion mode at 550°C and the ion spray voltage was set to 5000 volts. The mass transitions (m/z) used were the following: 396.2/110.1 for AM404, 374.2/110.0 for HPODA, 400.2/114.0 for AM404-D4, 440.3/137.1 for arvanil and 418.3/137.1 for olvanil. The declustering potentials were between 96 and 130 volts and the collision energies between 25 and 41 volts.
Quantification of 4-aminophenol and HMBA. Sample aliquots of 5 µl were injected into a Hypercarb column (50 × 2.1 mm; Thermo). All mobile phases were water-acetonitrile gradients, containing 0.1% formic acid. The acetonitrile content was initially 2%, then increased linearly to […] over 5 min and then kept at 100% for 1 min, followed by an equilibration period at 2% for 1.5 min. The electrospray ion source was set at 550°C and used in the positive ion mode with an ion spray voltage of 5000. […] HMBA loses the amino group already in the source of the MS and therefore the mass transition used was 137.0/94.0. The declustering potentials were 100 and 90 volts and the collision energies 21 and 29 volts. No internal standard was used for these analyses.
The contents of the compounds were expressed either in moles or as normalized peak areas (nPA) and related to the protein content in the samples. The nPA was obtained by dividing the peak area of the analyte with the peak area for the internal standard in the same sample. The detection limits were calculated as the concentrations corresponding to three times the standard deviation of the blanks. When levels were below detection limit, numerical values of half the detection limit were used in the calculations.

[5] = format: in vivo, rat
Description: […] The brain was removed from the skull and blood was collected in test tubes, containing 60 µl buffered citrate, and the tissues snap frozen in liquid nitrogen before storage at −70°C.
as §2
Quantification of AM404, HPODA, arvanil and olvanil. Samples were analyzed on a Waters Aquity UPLC system coupled to a Sciex 5500 tandem mass spectrometer. […]

[6] = tested on: patients with postoperative pain; design: method as in PMID 18843665; conditions: single oral dose of 1000 mg; cited from earlier work
mice = assay: Formalin test, mouse; format: in vivo; conditions: mice
Description: as §1

human TRPV1 = tested on: human TRPV1; design: method as in PMID 11033355; conditions: HEK293 cells expressing human TRPV1, fluorometric calcium imaging; cited from earlier work
[7] = AM251 3 mg/kg i.p., 4-aminophenol 100 mg i.p.
[8] = PMSF 10 mg/kg s.c., 4-aminophenol 100 mg/kg i.p.
[9] = capsazepine 10 mg/kg i.p., 4-aminophenol 100 mg/kg

T1 sequence (O35433 whole entry): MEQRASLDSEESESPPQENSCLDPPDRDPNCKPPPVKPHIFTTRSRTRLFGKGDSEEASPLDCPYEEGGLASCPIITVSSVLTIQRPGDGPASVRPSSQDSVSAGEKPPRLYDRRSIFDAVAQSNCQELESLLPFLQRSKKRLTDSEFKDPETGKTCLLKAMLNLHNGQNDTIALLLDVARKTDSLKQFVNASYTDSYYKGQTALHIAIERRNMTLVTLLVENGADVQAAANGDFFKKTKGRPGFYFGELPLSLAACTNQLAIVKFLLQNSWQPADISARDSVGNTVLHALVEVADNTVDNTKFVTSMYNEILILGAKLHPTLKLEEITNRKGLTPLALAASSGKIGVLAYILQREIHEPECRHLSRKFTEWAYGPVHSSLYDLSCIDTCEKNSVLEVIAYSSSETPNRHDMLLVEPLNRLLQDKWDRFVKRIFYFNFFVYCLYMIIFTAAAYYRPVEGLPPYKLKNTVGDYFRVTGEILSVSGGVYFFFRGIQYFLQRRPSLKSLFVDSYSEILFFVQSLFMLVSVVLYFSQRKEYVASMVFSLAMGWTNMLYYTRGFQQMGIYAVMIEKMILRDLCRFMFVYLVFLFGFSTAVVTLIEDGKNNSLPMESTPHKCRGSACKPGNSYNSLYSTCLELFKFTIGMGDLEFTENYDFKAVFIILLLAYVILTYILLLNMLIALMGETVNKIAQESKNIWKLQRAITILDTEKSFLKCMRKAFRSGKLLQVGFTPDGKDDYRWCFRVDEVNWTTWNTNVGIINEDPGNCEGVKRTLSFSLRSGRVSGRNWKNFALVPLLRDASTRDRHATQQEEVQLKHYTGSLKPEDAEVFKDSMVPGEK

Question: With `NCCc1c[nH]c2c(O)cc(O)cc12` [5,7-DHT, 5,7-dihydroxytryptamine] as the compound, how does the spinal serotonin content [1] read?
Answer: 359±38 ng/g tissue wet weight

Question: And the “effect on antinociceptive effect of 4-aminophenol, rat paw pressure test” value (from here on “effect … rat paw pressure test”) (rats [2]; 5,7-DHT 100 µg/rat intrathecal, 7 days before test, 4-aminophenol 100 mg/kg i.p.)?
Answer: inhibited the antinociceptive effect

Question: Which results are given for `Cc1c(C(=O)NN2CCCCC2)nn(-c2ccc(Cl)cc2Cl)c1-c1ccc(I)cc1` [AM251, N-(piperidin-1-yl)-5-(4-iodophenyl)-1-(2,4-dichlorophenyl)-4-methyl-1H-pyrazole-3-carboxamide]?
Answer: effect on antinociceptive effect of 4-aminophenol, rat formalin test (rats [3]; [7]): prevented the antinociceptive effect; effect on antinociceptive effect of 4-aminophenol, rat paw pressure test (rats [2]; [7]): prevented the antinociceptive effect

Question: For `CCCCC/C=C\C/C=C\C/C=C\C/C=C\CCCC(=O)Nc1ccc(O)cc1` [AM404, N-(4-Hydroxyphenyl)-5Z,8Z,11Z,14Z-eicosatetraenamide], which EC50 (TRPV1) is on record?
Answer: 31.6 nM

Question: What about the “times more potent than HPODA as TRPV1 activator” value (TRPV1; vasorelaxation readout) of the same compound?
Answer: 3.3 times

Question: And the “Brain AM404” value ([4]; 20 min after 4-AP 30 mg/kg i.p., mouse)?
Answer: 411 pmol/g and 411 ± 134 pmol/g

Question: And the “Brain AM404” value ([4]; 20 min after 4-AP 100 mg/kg i.p., mouse)?
Answer: 4829 ± 1435 pmol/g

Question: And the “brain content in FAAH−/− mice compared to FAAH+/+ littermates” value ([4]; 20 min after i.p. 4-aminophenol (30 and 100 mg/kg) or HMBA (300 mg/kg))?
Answer: substantially reduced

Question: What about the “quotient between the brain contents of lipid metabolite and its parent amine” value ([4]; mouse, in vivo) of the same compound?
Answer: 1∶1,500

Question: What about the “content of AM404 in rat brain at different time points” value ([5]; 4-aminophenol 100 mg/kg i.p., 15 min and 30 min) of the same compound?
Answer: Significant amounts

Question: Which EC50 (TRPV1; capsazepine-sensitive vasorelaxation, rat mesenteric arterial segments precontracted with phenylephrine, read-out: pEC50 (negative log concentration eliciting half-maximal vasorelaxation) (converted)) does the source give for `CCCCCCCC/C=C\CCCCCCCC(=O)Nc1ccc(O)cc1` [HPODA, N-(4-hydroxyphenyl)-9Z-octadecenamide] here?
Answer: 100 nM

Question: And the “brain content in FAAH−/− mice compared to wild-type littermates” value ([4]; mouse, in vivo)?
Answer: no significant difference

Question: What about the “increase of brain content in FAAH−/− mice compared to wild-type littermates” value ([4]; mouse, in vivo, 20 min) of the same compound?
Answer: 3 fold

Question: What does the source list for `O=S(=O)(F)Cc1ccccc1` [PMSF, phenylmethylsulfonyl fluoride]?
Answer: effect on formation of AM404 in rat brain ([5]; PMSF 10 mg/kg s.c. pretreatment, 20 min after 4-aminophenol 100 mg/kg i.p.): substantially reduced the formation of AM404; effect on antinociceptive effect of 4-aminophenol, rat formalin test (rats [3]; [8]): inhibited the antinociceptive effect; effect on antinociceptive effect of 4-aminophenol, rat paw pressure test (rats [2]; [8]): inhibited the antinociceptive effect

Question: Which “NNT (numbers needed to treat) for at least 50% pain reduction over 4–6 hours” value [6] does the source give for `CC(=O)Nc1ccc(O)cc1` [Paracetamol] here?
Answer: 3.6

Question: Which “effect on antinociceptive effect of 4-aminophenol, rat formalin test” value (rats [3]; WAY-100635 40 µg/rat intrathecal 5 min before 4-aminophenol 100 mg/kg i.p.) does the source give for `COc1ccccc1N1CCN(CCN(C(=O)C2CCCCC2)c2ccccn2)CC1.O=C(O)/C=C\C(=O)O` [WAY-100635, N-[2-[4-(2-methoxyphenyl)-1-piperazinyl]ethyl]-N-2-pyridinylcyclohexane-carboxamide maleate] here?
Answer: prevented

Question: For `Oc1cc2c(cc1O)CN(C(=S)NCCc1ccc(Cl)cc1)CCC2` [capsazepine, N-[2-(4-Chlorophenyl)ethyl]-1,3,4,5-tetrahydro-7,8-dihydroxy-2H-2-benzazepine-2-carbothioamide], which “effect on vasorelaxation evoked by arvanil, olvanil and HPODA” value (TRPV1; capsazepine 3 µM) is on record?
Answer: significantly suppressed the vasorelaxation

Question: And the “effect on antinociceptive effect of 4-aminophenol in formalin test” value (mice; capsazepine 100 nmol into lateral ventricle 5 min prior to 4-aminophenol 30 mg/kg i.p.)?
Answer: eliminated the antinociceptive effects

Question: What about the “effect on antinociceptive effect of HMBA in formalin test” value (mice; capsazepine 100 nmol into lateral ventricle 5 min prior to HMBA 100 mg/kg i.p.) of the same compound?
Answer: eliminated the antinociceptive effects

Question: And the “effect on antinociceptive effect of 4-aminophenol, rat formalin test” value (rats [3]; [9])?
Answer: prevented the antinociceptive effect

Question: What about the “effect … rat paw pressure test” value (rats [2]; [9]) of the same compound?
Answer: prevented the antinociceptive effect

Question: Which “antinociception in formalin test” value (mice; dipyrone 50 mg/kg i.p.) does the source give for `Cc1c(N(C)CS(=O)(=O)[O-])c(=O)n(-c2ccccc2)n1C.[Na+]` [dipyrone] here?
Answer: effective antinociceptive agent

Question: For `CCCCCCCC/C=C\CCCCCCCC(=O)NCc1ccc(O)c(OC)c1` [olvanil, N-(4-hydroxy-3-methoxybenyl)-9Z-octadecenamide], which EC50 (TRPV1) is on record?
Answer: 0.316 nM

Question: And the “times more potent than AM404 as TRPV1 activator” value (TRPV1; vasorelaxation readout)?
Answer: > 100 times and 110 times

Question: What about the “times more potent than HPODA as TRPV1 activator” value (TRPV1; vasorelaxation readout) of the same compound?
Answer: > 300 times

Question: And the “Brain Olvanil” value ([4]; 20 min after HMBA 300 mg/kg i.p., mouse)?
Answer: 45 ± 5.6 pmol/g

Question: And the “brain content in FAAH−/− mice compared to FAAH+/+ littermates” value ([4]; mouse, in vivo)?
Answer: substantially reduced

Question: What about the “times more potent than AM404” value (human TRPV1) of the same compound?
Answer: approximately 50 times

Question: Which “effect … rat paw pressure test” value (rats [2]; tropisetron 500 ng/rat intrathecal 5 min before 4-aminophenol 100 mg/kg i.p.) does the source give for `CN1[C@@H]2CC[C@H]1C[C@@H](OC(=O)c1c[nH]c3ccccc13)C2` [tropisetron, Tropisetron] here?
Answer: prevented

— paper PMC3734263, “Fatty Acid Amide Hydrolase-Dependent Generation of Antinociceptive Drug Metabolites Acting on TRPV1 in the Brain” (PLoS ONE, 2013)
